Source: publication PMC9986306, “Beyond CBD: Inhibitory effects of lesser studied phytocannabinoids on human voltage-gated sodium channels” (Frontiers in Physiology, 2023)
Marks after values point to notes of the source that are not given here.

Key:
[1] = molecular target: T1, human NaV1.6 channel (SCN8A, CHO cells) (Homo sapiens, UniProt Q9UQD0); design: method as in Milligan et al., 2022; details: NaV1.6 concentration-response of CBD; mean ± SEM; ref Milligan et al., 2022; cited from earlier work
T1 construct: expressed in transfected cells

[2] = system: patients with Dravet syndrome (DS) and Lennox-Gastaut syndrome (LGS); design: method as in earlier work; details: Phase III clinical trials, ref Devinsky et al., 2017a, 2017b, 2018, 2020, 2021, Tang and Fang; cited from earlier work
[3] = system: mouse models of neuropathic pain; design: method as in Abraham et al., 2020; Casey et al., 2022; details: ref Abraham et al., 2020, Casey et al., 2022; cited from earlier work
[4] = molecular target: T1, human NaV1.6 channel (SCN8A, CHO cells); test: Planar patch-clamp, biophysical properties (activation, SSFI, recovery from SSFI); format: cell-based; details: change vs vehicle DMSO at IC50 concentration (CBD 16.6 μM, CBGA 12.0 μM, CBDVA 24.1 μM)
Procedure: (§1) HEK293T cells stably expressing SCN1A or SCN2A and CHO cells stably expressing SCN8A or SCN9A were maintained as previously described ([Richards et al., 2018]; [Milligan et al., 2022]).
(§2) Patch-clamp recordings were made using a Patchliner® (Nanion Technologies, Munich, Germany) in the whole-cell configuration as previously described ([Richards et al., 2018]; [Milligan et al., 2022]). Briefly, cells were prepared in suspension at a density of 1 × 10^6-5 × 10^7 cells/mL. The external recording solution comprised (in mM): 140 NaCl, 4 KCl, 1 MgCl2, 2 CaCl2, 5 D-glucose, 10 HEPES, pH 7.4 with NaOH, ∼295 mOsm. The internal recording solution comprised (in mM): 50 CsCl, 60 CsF, 10 NaCl, 20 EGTA, 10 HEPES, pH 7.2 with CsOH, ∼285 mOsm. Medium single-hole planar NPC-16 chips with an average resistance of ∼2.5 MΩ were used. Chip and whole-cell capacitance were fully compensated, and 50% series resistance compensation applied. Recordings were acquired at 50 kHz with the low pass filter set to 10 kHz in PATCHMASTER (HEKA Instruments, NY, United States) and performed at 27°C. Offline analysis was performed using Microsoft Excel, MatLab R2019a (MathWorks) and GraphPad Prism 8 (Molecular Devices).
(§3) Voltage protocols were used, as previously described ([Richards et al., 2018]). Briefly, to study the voltage-dependence of activation, cells were held at −120 mV and depolarized to test potentials, in 5 mV increments, between −120 mV and +50 mV for 100 ms. To study steady-state fast inactivation, cells were held at conditioning pre-pulse potentials ranging from −120 mV to +30 mV in 5 mV increments from a holding potential of −120 mV and a test pulse at 5 mV for 20 ms. Recovery from fast inactivation was studied by pre-pulsing the cells to 0 mV from a holding potential of −120 mV for 50 ms, to fully inactivate channels. The voltage was then stepped back to the holding potential for variable interpulse intervals (ipi from 0 to 39 ms in 3 ms increments). To test channel availability, the voltage was stepped to 0 mV for 50 ms.
(§4) To examine the voltage-dependence of activation, normalized current-voltage (I-V) relationships were converted to conductance (G) using the following equation: G = I/(V−V r ) where Vr is the reversal potential for Na^+. The voltage-dependence of conductance and availability were normalized and fitted to a Boltzmann equation: G = 1/(1 + exp [(V−V 0.5)/a]), where a is the slope of the half-maximum, V is the potential of the given pulse, and V 0.5 is the potential for the half-maximal activation/inactivation. The time course of inactivation was fitted to a single exponential function I/Imax = I0+A*exp (-t-t0/τ)+C, where I0 is the non-inactivating component, Imax is the peak current, t is time, and A is the component for the time constant τ. Time constants were plotted against voltage and the data fitted with a decaying exponential equation Y = span*exp (−K*x)+plateau, where span is the starting point of the curve, K is the decay factor, plateau is the value the curve decays to, and x is time. To measure recovery from inactivation, normalized currents were plotted against ipi and data fitted with equation I/I max = 1-exp/(rc + x), where I max is maximal current; rc recovery rate constant; x is time. Peak current (I) was plotted as fractional recovery against the recovery period by normalizing to the maximum current (Imax) during the conditioning potentials.

[5] = molecular target: T2, human NaV1.1 channel (SCN1A, HEK293T cells) (Homo sapiens, UniProt P35498); test: as above; format: cell-based; details: change vs vehicle DMSO at IC50 concentration (CBD 18.5 μM, CBGA 13.6 μM, CBDVA 50 μM)
T2 construct: expressed in transfected cells
Procedure: as §1, §2, §3, §4

[6] = molecular target: T3, human NaV1.2 channel (SCN2A, HEK293T cells) (Homo sapiens, UniProt Q99250); test: as above; format: cell-based; details: change vs vehicle DMSO at IC50 concentration (CBD 18.4 μM, CBGA 14.7 μM, CBDVA 60 μM)
T3 construct: expressed in transfected cells
T3 sequence (Q99250 whole entry): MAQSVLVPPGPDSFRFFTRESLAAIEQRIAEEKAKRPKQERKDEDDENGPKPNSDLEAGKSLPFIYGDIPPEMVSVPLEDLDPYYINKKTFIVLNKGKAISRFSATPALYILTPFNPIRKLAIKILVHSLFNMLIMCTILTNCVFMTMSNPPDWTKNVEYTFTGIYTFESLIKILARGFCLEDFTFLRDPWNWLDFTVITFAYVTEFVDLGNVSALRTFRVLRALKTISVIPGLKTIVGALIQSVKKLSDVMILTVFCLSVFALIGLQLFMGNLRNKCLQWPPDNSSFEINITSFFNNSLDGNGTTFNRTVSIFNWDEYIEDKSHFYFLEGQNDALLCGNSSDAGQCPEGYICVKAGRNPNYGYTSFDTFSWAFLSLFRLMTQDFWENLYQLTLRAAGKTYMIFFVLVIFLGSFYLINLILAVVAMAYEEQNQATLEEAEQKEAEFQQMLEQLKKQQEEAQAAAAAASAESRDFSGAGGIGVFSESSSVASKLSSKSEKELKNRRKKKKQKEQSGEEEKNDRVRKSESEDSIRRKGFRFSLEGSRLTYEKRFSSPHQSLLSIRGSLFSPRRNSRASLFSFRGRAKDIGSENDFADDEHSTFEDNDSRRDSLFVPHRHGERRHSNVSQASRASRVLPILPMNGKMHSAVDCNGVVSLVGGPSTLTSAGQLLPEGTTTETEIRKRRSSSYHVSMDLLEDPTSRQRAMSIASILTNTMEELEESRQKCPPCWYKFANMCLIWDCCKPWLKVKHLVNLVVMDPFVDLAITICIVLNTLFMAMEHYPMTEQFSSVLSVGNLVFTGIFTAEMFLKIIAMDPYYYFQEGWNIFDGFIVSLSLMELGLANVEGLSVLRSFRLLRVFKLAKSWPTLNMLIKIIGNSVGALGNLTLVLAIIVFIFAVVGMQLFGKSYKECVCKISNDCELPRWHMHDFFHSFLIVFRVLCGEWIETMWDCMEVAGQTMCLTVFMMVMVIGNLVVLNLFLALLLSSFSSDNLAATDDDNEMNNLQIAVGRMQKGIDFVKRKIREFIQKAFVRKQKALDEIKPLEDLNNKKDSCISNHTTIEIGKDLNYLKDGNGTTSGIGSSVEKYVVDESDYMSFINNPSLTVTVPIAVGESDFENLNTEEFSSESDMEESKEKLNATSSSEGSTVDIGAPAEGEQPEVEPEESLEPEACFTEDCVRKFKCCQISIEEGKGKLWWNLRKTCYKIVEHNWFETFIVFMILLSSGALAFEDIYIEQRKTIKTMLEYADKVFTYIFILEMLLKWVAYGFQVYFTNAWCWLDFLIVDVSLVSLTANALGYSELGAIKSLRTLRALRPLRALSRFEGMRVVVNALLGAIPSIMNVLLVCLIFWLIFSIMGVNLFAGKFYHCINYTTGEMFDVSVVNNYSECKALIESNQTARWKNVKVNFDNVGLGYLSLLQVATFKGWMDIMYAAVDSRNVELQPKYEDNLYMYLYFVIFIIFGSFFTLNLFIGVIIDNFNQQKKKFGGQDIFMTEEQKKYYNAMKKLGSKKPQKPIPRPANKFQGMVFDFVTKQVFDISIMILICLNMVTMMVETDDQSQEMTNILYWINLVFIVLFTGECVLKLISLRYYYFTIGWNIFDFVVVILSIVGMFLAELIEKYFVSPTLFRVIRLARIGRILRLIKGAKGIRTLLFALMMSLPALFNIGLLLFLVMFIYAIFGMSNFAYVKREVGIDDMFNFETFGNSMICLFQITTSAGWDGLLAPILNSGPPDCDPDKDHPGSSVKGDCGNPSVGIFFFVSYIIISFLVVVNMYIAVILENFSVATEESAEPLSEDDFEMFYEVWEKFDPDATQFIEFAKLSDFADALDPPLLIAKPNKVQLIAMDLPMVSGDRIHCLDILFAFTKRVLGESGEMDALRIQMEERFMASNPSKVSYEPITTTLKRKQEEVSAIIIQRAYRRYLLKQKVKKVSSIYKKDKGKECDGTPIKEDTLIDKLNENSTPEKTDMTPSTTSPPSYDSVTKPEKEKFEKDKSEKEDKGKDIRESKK
Procedure: as §1, §2, §3, §4

[7] = molecular target: T4, human NaV1.7 channel (SCN9A, CHO cells) (Homo sapiens, UniProt Q15858); test: as above; format: cell-based; details: change vs vehicle DMSO at IC50 concentration (CBD 11.9 μM, CBGA 16.4 μM, CBDVA 60 μM)
T4 construct: expressed in transfected cells
T4 sequence (Q15858 whole entry): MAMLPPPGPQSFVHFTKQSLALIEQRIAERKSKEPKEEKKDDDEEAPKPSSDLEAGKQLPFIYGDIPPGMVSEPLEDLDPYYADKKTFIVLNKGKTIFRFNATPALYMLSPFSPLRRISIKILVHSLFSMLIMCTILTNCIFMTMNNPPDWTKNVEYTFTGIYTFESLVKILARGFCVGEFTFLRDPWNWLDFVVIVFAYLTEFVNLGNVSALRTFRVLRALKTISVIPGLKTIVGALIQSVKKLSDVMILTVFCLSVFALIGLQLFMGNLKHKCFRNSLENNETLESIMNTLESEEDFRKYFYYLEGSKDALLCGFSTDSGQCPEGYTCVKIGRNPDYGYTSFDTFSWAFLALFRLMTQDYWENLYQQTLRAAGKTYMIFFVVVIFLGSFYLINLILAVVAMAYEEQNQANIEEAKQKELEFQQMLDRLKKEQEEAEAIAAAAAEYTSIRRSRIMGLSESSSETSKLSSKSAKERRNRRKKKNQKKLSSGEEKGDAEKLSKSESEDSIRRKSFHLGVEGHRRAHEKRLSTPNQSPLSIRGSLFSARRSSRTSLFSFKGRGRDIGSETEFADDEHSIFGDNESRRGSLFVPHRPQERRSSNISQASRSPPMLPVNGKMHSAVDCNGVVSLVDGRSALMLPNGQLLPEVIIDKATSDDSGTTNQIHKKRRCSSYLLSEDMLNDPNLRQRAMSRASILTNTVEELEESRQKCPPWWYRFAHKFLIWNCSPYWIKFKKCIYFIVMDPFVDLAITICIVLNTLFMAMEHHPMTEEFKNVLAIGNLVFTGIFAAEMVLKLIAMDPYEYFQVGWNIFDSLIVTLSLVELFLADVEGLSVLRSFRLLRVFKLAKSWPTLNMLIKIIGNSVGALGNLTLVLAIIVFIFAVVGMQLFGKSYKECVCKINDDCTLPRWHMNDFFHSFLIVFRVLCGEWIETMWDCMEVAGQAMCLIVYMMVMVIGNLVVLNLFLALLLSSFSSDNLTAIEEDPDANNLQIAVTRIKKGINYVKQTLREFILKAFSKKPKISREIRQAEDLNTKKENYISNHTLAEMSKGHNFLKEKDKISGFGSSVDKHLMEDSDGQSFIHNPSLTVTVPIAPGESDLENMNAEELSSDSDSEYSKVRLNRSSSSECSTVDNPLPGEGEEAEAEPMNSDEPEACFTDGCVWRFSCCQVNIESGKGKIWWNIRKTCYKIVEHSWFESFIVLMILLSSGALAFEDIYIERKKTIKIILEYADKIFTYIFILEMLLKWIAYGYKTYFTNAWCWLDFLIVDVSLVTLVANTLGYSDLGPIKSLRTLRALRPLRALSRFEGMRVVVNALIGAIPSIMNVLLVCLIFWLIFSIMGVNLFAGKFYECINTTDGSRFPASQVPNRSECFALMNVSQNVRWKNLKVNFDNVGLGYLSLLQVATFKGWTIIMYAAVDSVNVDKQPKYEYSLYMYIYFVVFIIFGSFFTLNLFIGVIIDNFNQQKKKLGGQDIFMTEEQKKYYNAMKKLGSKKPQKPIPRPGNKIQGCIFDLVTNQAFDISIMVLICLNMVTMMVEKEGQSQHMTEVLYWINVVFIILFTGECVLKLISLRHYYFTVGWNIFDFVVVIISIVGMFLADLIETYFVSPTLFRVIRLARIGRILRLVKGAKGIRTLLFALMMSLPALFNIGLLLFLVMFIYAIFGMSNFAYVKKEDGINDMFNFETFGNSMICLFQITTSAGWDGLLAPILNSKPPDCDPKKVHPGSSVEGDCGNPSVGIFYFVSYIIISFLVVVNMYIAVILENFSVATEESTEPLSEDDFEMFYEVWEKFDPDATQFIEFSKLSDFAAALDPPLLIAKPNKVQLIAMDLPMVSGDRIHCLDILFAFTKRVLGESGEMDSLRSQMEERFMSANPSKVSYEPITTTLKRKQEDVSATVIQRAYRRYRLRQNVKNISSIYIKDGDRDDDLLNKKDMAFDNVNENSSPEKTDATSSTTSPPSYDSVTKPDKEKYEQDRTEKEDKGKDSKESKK
Procedure: as §1, §2, §3, §4

[8] = molecular target: T3, human NaV1.2 channel (SCN2A, HEK293T cells); design: method as in Milligan et al., 2022; details: NaV1.2 concentration-response of CBD; mean ± SEM; ref Milligan et al., 2022; cited from earlier work
[9] = molecular target: T4, human NaV1.7 channel (SCN9A, CHO cells); design: method as in Milligan et al., 2022; details: NaV1.7 concentration-response of CBD; mean ± SEM; ref Milligan et al., 2022; cited from earlier work
[10] = molecular target: T2, human NaV1.1 channel (SCN1A, HEK293T cells); design: method as in Milligan et al., 2022; details: NaV1.1 concentration-response of CBD; mean ± SEM; ref Milligan et al., 2022; cited from earlier work

## C=C(C)[C@@H]1CCC(C)=C[C@H]1c1c(O)cc(CCCCC)cc1O [CBD, cannabidiol, reference compound]
[1]
  Slope (Hill slope coefficient): 1.3 ± 0.4
[2]
  Effect on seizures in patients: reduced seizures
[3]
  Effect on allodynia: reduced allodynia
[4]; SSFI
  Inactivation △ V0.5 inact: −5.3 ± 3.6 mV
  Inactivation △ slope factor: −0.3 ± 0.7
[4]
  Activation △ Slope factor: 0.2 ± 0.2
  Activation △ V0.5 act: −0.6 ± 1.1 mV
  Inactivation △ τinact SSFI at 5 mV: 0.03 ± 0.06
[5]; SSFI
  Inactivation △ V0.5 inact: −5.6 ± 1.1**** mV
  Inactivation △ slope factor: 0.5 ± 0.3
[5]
  Activation △ Slope factor: 0.7 ± 0.2**
  Activation △ V0.5 act: 0.3 ± 1.2 mV
  Inactivation △ τinact SSFI at 5 mV: 0.03 ± 0.02
[6]; SSFI
  Inactivation △ V0.5 inact: −4.2 ± 1.9 mV
  Inactivation △ slope factor: 0.1 ± 0.2
[6]
  Activation △ Slope factor: 1.0 ± 0.3*
  Activation △ V0.5 act: 3.3 ± 2.7 mV
  Inactivation △ τinact SSFI at 5 mV: 0.08 ± 0.07
[7]; SSFI
  Inactivation △ V0.5 inact: −3.7 ± 1.2** mV
  Inactivation △ slope factor: 1.2 ± 0.3***
[7]
  Activation △ Slope factor: 1.9 ± 0.3****
  Activation △ V0.5 act: 5.7 ± 2.3* mV
  Inactivation △ τinact SSFI at 5 mV: 0.3 ± 0.1*
[8]
  Slope (Hill slope coefficient): 1.4 ± 0.4
[9]
  Slope (Hill slope coefficient): 3.1 ± 0.6
[10]
  Slope (Hill slope coefficient): 2.1 ± 0.8
